These results are taken from patent US20060073994A1, “Liquid detergent composition” (Conopco, Inc., d/b/a UNILEVER, priority 2004, published 2006).

For this experiment, the system named is Protease enzyme. The experiment in a line: Residual activity of protease enzyme in liquid detergent formulation with added perfume component after storage. It counts as biochemical. The conditions noted are these: 0.06% by weight perfume component added to 'base' liquid formulation; 2 weeks storage at 37° C.; activity determined at 40° C. in TRIS pH 9 buffer, tetrapeptide substrate; relative to t=0. The procedure:
The following ‘base’ liquid detergent formulation was prepared: […]
The residual activity of the protease enzyme in all thus-formed formulations after 2 weeks storage at 37° C., was determined at 40° C. in a TRIS pH 9 buffer and using tetrapeptide as substrate. For this determination, the following protocol was used: Samples of 70 mg of the tested liquid formulation were diluted in 10.00 ml MilliQ water. 10 μl of this solution was added to an assay of 205 μl containing 74.4 mM TRIS pH9 and 0.494 mM tetrapeptide (succinyl-Ala-Ala-Pro-Phe-p-Nitroanilide). The absorbance of the tested samples at a wavelength of […] was measured for 15 minutes at 40° C., using a spectrophotometer. The absolute changes in absorbance as compared to the absorbance measured on a freshly prepared calibration sample were correlated to the measured activity of such freshly prepared sample. The measured protease enzyme activity is expressed as GU/ml.
The residual enzyme activity (expressed as %) is the enzyme activity after storage of the liquid formulation concerned divided by the enzyme activity measured at t=0.
For `C/C=C\C(=O)C1C(C)=CCCC1(C)C` (stereo not drawn) [Alpha damascone], the “Residual activity after 2 weeks” value was 68%. Consider `O=Cc1ccccc1` [Benzaldehyde], for which the “Residual activity after 2 weeks” value is given as 67%. In the case of `CC(=O)OCc1ccccc1` [Benzyl acetate], the “Residual activity after 2 weeks” value is listed as 69%. Then `O=C/C=C/c1ccccc1` [Cinnamic aldehyde], with 58%; and `CC(C)=CCCC(C)=CC=O` [Citral], with 36%; and `CC(C)=CCCC(C)CC=O` (stereo not drawn) [Citronellal], with 62%.

Regarding `CC1=CC(C)C(C=O)CC1` (stereo not drawn) [Cyclal C], the “Residual activity after 2 weeks” value is 45%. For `CC1=CCC(C(C)C)=CC1` [Gamma terpinolene], the “Residual activity after 2 weeks” value is 54%. Then `CCCCCCC(C=O)=Cc1ccccc1` [Hexylcinnamic aldehyde], with 81%; and `CC(=O)C1(C)CC2=C(CCCC2(C)C)CC1C` (stereo not drawn) [Iso e super], with 75%; and `CC(C=O)Cc1ccc(C(C)(C)C)cc1` (stereo not drawn) [Lilial], with 48%. Take `C=C(C)[C@H]1CC=C(C)CC1` [Limonene]: the “Residual activity after 2 weeks” value came out at 60%. With `COC(=O)c1ccccc1N` [Methyl anthranilate] the figure was 70%. `CCCCCCCC=O` [Octanal]: the “Residual activity after 2 weeks” value is 44%.

As for `N#CC(=C1CCCCC1)c1ccccc1` [Peonile], the “Residual activity after 2 weeks” value amounted to 73%.

With `CC(C)=CCCC1=CCC(C)(C=O)CC1` (stereo not drawn) [Precyclemone], the “Residual activity after 2 weeks” value is 74%. Take `CC(C)=C1CC[C@@H](C)CC1=O` [Pulegone]: the “Residual activity after 2 weeks” value amounted to 58%. For `CC(C)=CC1CC(C)CCO1` (stereo not drawn) [Rose oxide], the “Residual activity after 2 weeks” value was 60%.

As to `CC1=CCC(=C(C)C)CC1` [Terpinolene], the “Residual activity after 2 weeks” value stood at 47%. Turning to `CCC(C)(O)CCCC(C)C` (stereo not drawn) [Tetra hydrolinalool], the “Residual activity after 2 weeks” value is 65%. For `CCCCCCCCCC/C=C/C=O` [Tridecylenic aldehyde], the “Residual activity after 2 weeks” value is given as 45%.

Regarding `CC(CC=O)c1ccccc1` (stereo not drawn) [Trifernal], the “Residual activity after 2 weeks” value was 74%.

As to `COc1cc(C=O)ccc1O` [Vanillin], the “Residual activity after 2 weeks” value worked out at 43%. Then Vertofix coeur, with 68%.
